Positions count from the first letter of the chain named. “Also recorded” adds a separate entry of the source. Read-outs that look alike come from different tables or passages of the source. Blank lines part the entries; values can stand above or below the compound they belong to.
How the values were obtained:
Assay type in all cases: cell-based
GluD2-L656V = target: T1, GluD2-L656V (Rattus norvegicus, UniProt Q63226, L656V); experiment: TEVC of constitutive current, Xenopus oocytes expressing GluD2-L656V
T1 construct: expressed in transfected cells; host or cells: Xenopus laevis oocytes injected with cRNA
T1 sequence (Q63226 24-1007 L656V): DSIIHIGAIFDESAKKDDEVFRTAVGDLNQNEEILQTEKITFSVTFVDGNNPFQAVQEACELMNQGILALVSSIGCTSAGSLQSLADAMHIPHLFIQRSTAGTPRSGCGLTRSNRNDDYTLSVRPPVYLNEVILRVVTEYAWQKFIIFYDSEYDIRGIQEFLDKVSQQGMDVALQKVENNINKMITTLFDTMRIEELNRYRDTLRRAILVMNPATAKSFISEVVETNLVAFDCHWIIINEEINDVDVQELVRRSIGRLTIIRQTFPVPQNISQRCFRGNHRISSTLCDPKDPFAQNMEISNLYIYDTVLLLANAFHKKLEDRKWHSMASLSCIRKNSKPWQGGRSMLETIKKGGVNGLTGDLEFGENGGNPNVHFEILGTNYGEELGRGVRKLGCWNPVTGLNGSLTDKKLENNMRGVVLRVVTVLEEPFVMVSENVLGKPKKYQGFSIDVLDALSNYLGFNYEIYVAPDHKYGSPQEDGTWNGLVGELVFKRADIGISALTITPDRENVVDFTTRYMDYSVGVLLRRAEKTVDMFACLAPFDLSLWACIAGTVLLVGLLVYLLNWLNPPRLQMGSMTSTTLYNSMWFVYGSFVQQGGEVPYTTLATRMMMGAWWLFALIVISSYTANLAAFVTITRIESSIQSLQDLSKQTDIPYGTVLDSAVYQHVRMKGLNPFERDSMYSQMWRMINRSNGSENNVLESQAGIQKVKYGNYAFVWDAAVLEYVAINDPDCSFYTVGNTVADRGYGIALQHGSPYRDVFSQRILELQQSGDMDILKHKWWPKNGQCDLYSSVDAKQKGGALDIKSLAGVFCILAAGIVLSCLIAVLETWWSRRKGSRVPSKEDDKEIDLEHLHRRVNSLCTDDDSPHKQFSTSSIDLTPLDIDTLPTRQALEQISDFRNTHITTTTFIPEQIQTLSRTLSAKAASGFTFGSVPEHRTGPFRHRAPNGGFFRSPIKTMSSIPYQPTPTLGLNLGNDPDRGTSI

GluD1-A650T = target: T2, GluD1-A650T (Homo sapiens, UniProt Q9ULK0, A650T); experiment: TEVC of constitutive current, Xenopus oocytes expressing GluD1-A650T; conditions: for EC50: modulation of constitutive current
T2 construct: expressed in transfected cells; host or cells: Xenopus laevis oocytes injected with cRNA
T2 sequence (Q9ULK0 21-1009 A650T): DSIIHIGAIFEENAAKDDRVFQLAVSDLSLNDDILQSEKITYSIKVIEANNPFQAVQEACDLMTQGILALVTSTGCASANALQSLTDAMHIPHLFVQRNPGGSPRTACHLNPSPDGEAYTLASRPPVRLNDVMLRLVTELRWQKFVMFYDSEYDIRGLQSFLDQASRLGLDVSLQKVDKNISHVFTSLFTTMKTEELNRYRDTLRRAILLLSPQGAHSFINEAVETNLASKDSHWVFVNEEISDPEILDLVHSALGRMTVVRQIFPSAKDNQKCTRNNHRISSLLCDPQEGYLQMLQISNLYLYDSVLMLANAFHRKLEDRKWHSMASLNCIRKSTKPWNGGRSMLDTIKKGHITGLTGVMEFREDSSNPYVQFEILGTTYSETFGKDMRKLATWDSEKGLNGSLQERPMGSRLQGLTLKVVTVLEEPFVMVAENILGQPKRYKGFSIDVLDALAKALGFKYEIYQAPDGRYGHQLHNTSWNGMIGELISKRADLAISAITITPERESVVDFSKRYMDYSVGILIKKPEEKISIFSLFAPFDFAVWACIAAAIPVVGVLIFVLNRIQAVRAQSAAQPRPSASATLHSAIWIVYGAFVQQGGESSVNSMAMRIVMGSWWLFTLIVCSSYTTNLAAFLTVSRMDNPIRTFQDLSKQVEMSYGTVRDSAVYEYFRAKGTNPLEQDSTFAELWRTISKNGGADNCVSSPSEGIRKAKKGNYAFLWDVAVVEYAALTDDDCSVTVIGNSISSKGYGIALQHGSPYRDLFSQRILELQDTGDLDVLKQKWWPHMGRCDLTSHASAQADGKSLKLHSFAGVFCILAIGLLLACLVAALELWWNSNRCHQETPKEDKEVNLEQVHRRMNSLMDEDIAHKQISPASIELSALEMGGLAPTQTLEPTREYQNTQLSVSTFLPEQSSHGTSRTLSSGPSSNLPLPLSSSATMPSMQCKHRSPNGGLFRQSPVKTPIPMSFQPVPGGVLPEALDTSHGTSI

GluD2-A654D = target: T3, GluD2-A654D (Rattus norvegicus, UniProt Q63226, A654D); experiment: TEVC of constitutive current, Xenopus oocytes expressing GluD2-A654D
T3 construct: expressed in transfected cells; host or cells: Xenopus laevis oocytes injected with cRNA
T3 sequence (Q63226 24-1007 A654D): T1 sequence (Q63226 24-1007 L656V) with A631D, V633L

[1] = normalized to NMDG+ − Na+ difference current
[2] = 10 mM D-serine, positive = increase, negative = decrease of activity
[3] = percent of constitutive leak current (NMDG+/Na+ difference current)
[4] = inhibition of constitutive current, read-out: Memantine IC50
[5] = 100 μM pentamidine, positive = increase, negative = decrease of activity

Ca2+ % Max (NMDG+ − Na+) Mean ± SEM (GluD2-L656V; [1]): 260 ± 9.9 (11) % | EC50 (GluD2-L656V; potentiation of constitutive current, read-out: Ca2+ EC50 [95% CI]): 170 µM | Ca2+ EC50 A654T/EC50 variant (GluD2-L656V; ratio): 0.88 | EC50 (GluD2-L656V; read-out: Ca2+ potentiation EC50): 100 to 400 µM | Effect on constitutive current, in words (GluD1-A650T): modestly inhibited | EC50 (GluD1-A650T; inhibited by Ca2+ (not potentiated), read-out: Ca2+ EC50 [95% CI]): 290 µM | Ca2+ % Max (NMDG+ − Na+) Mean ± SEM (GluD1-A650T; [1]): 65 ± 3 (10) % | EC50 (GluD2-A654D; modulation of constitutive current, inhibited by Ca2+ (not potentiated), read-out: Ca2+ EC50 [95% CI]): 170 µM | Ca2+ % Max (NMDG+ − Na+) Mean ± SEM (GluD2-A654D; [1]): 82 ± 10 (12) % | Ca2+ EC50 A654T/EC50 variant (GluD2-A654D; ratio): 0.88
SMILES: [Ca+2] [Ca^2+]
Effect on constitutive current, in words (GluD2-A654D): weak inhibitor; also recorded: modestly inhibited

Reduction of maximum possible activity (Na+ −NMDG+ difference current) by D-serine (GluD2-L656V; 10 mM D-serine): ~ 50% | D-Serine effect (Baseline −10 mM D-Serine) (GluD2-L656V; [2]): −460 ± 53 (12) nA | D-serine % Max (NMDG+ − Na+) Mean ± SEM (GluD2-L656V; [3]): 62 ± 3.2 (14) % | D-Serine effect (Baseline −10 mM D-Serine) (GluD1-A650T; [2]): 810 ± 130 (12) nA | D-serine % Max (NMDG+ − Na+) Mean ± SEM (GluD1-A650T; [3]): 120 ± 1.8 (11) % | EC50 (GluD1-A650T; read-out: D-serine EC50 [95% CI], potentiated by D-serine (not inhibited)): 130 µM | D-Serine effect (Baseline −10 mM D-Serine) (GluD2-A654D; [2]): −29 ± 10 (14) nA | D-serine % Max (NMDG+ − Na+) Mean ± SEM (GluD2-A654D; [3]): 85 ± 2.6 (15) %
SMILES: N[C@H](CO)C(=O)O [D-serine]
Effect on constitutive current, in words (GluD1-A650T): modestly potentiated; also recorded: slightly potentiated | Effect on constitutive current, in words (GluD2-A654D): little effect; also recorded: near complete loss of D-serine potency

IC50 (GluD1-A650T; [4]): > 300 µM | IC50 (GluD2-A654D; [4]): 55 µM
SMILES: CC12CC3CC(C)(C1)CC(N)(C3)C2 [Memantine, memantine]

SMILES: N=C(N)c1ccc(OCCCCCOc2ccc(C(=N)N)cc2)cc1 [Pentamidine, pentamidine]
Pentamidine effect (Baseline −100 μM Pentamidine) (GluD2-L656V; [5]): −640 ± 190 (12) nA | IC50 (GluD2-L656V; read-out: Pentamidine IC50): 10 µM | Pentamidine effect (Baseline −100 μM Pentamidine) (GluD1-A650T; [5]): −1090 ± 200 (12) nA | IC50 (GluD1-A650T; read-out: Pentamidine IC50): 20 µM | Pentamidine effect (Baseline −100 μM Pentamidine) (GluD2-A654D; [5]): −700 ± 160 (14) nA | IC50 (GluD2-A654D; read-out: Pentamidine IC50): 3.7 µM

Reference: paper PMC10840383, “Clinical features, functional consequences, and rescue pharmacology of missense GRID1 and GRID2 human variants” (Human Molecular Genetics, 2023)
